Each structure is given as a SMILES string.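 Cultured in 96-well plates, cells were exposed to test compound for 48 hours across five concentrations. GI50 marks 50% less growth. TGI: total growth inhibition.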

Among the test systems are HOP-62 NSCLC; HL-60(TB) leukemia; COLO 205 colon; OVCAR-5 ovarian; HCC-2998 colon; SK-MEL-5 melanoma; CAKI-1 renal; NCI-H226 lung; RPMI-8226 leukemia; HOP-92 NSCLC.
Assay in all cases: inhibition of tumour cell growth, NCI panel, 48 h

For the compound `Cn1cc(-c2ccc3ncc(-c4ccc(CC(=O)Nc5cc(C(C)(C)C)nn5C)cc4)cc3c2)cn1`, the GI50 in the assay with HOP-62 NSCLC is 3960 nM; with HL-60(TB) leukemia, 1200 nM; with COLO 205 colon, 2780 nM; in the assay on OVCAR-5 ovarian, 7830 nM; with HCC-2998 colon it was 2730 nM; in the assay with SK-MEL-5 melanoma, 756 nM. For the same compound, the GI50 is 541 nM in the assay on CAKI-1 renal, 1050 nM in the assay with NCI-H226 lung, 640 nM in the assay with RPMI-8226 leukemia and 2450 nM with HOP-92 NSCLC. In addition, the TGI in the assay on HOP-62 NSCLC was over 20000 nM; with HL-60(TB) leukemia, 8280 nM; with COLO 205 colon, over 20000 nM; in the assay on OVCAR-5 ovarian, over 20000 nM; with HCC-2998 colon, over 20000 nM; in the assay on SK-MEL-5 melanoma, 3000 nM. For the same compound, the TGI with CAKI-1 renal is 7150 nM; with NCI-H226 lung, 13300 nM; with RPMI-8226 leukemia, 4070 nM; in the assay with HOP-92 NSCLC, over 20000 nM.

As for `CS(=O)(=O)OCCN1CCN(C(=O)c2ccc(Cl)c3c(Nc4ccc(S(=O)(=O)N=C(N)N)cc4)c4ccccc4nc23)CC1`, the TGI in the assay with HOP-62 NSCLC, with HL-60(TB) leukemia, with COLO 205 colon, with OVCAR-5 ovarian, in the assay with HCC-2998 colon and with SK-MEL-5 melanoma was over 100000 nM each time. Besides, the TGI with CAKI-1 renal, with NCI-H226 lung, in the assay on RPMI-8226 leukemia and with HOP-92 NSCLC was over 100000 nM each time.

In the case of `N=C(N)n1cc(/C=N/N=C(N)N)cn1`, the TGI with HOP-62 NSCLC, in the assay on HL-60(TB) leukemia, in the assay with COLO 205 colon, in the assay with OVCAR-5 ovarian, in the assay with HCC-2998 colon and in the assay on SK-MEL-5 melanoma was over 100000 nM each time. The TGI with CAKI-1 renal, in the assay on NCI-H226 lung, in the assay with RPMI-8226 leukemia and with HOP-92 NSCLC was over 100000 nM each time.

Regarding `CCOC(=O)[C@@H](C)C[C@H](Cc1ccccc1)NC(=O)c1csc([C@@H](C[C@H](C(C)C)N(C)C(=O)CNC(=O)[C@H]2CCCCN2C)OC(C)=O)n1`, the GI50 in the assay on HOP-62 NSCLC is 1870 nM; in the assay on HL-60(TB) leukemia it was 312 nM; in the assay on COLO 205 colon it was 483 nM; in the assay with OVCAR-5 ovarian, 3580 nM; in the assay with HCC-2998 colon it was 795 nM; with SK-MEL-5 melanoma, 444 nM. Further, the GI50 in the assay on CAKI-1 renal is 771 nM; in the assay with NCI-H226 lung it was over 5670 nM; with RPMI-8226 leukemia, 496 nM; in the assay on HOP-92 NSCLC it was 254 nM. For the same compound, the TGI is over 14300 nM with HOP-62 NSCLC; 1010 nM with HL-60(TB) leukemia; 3640 nM with COLO 205 colon; over 14300 nM in the assay on OVCAR-5 ovarian; over 14300 nM in the assay with HCC-2998 colon; over 7300 nM with SK-MEL-5 melanoma. Besides, the TGI is over 14300 nM in the assay on CAKI-1 renal, over 14300 nM with NCI-H226 lung, over 14300 nM in the assay with RPMI-8226 leukemia and 2630 nM in the assay with HOP-92 NSCLC.

Turning to `CN(C)CCCOc1ccc(NC2=C(Cl)C(=O)C(Nc3ccc(OCCCN(C)C)cc3)=C(Cl)C2=O)cc1`, the GI50 is 1830 nM in the assay with HOP-62 NSCLC; 732 nM with HL-60(TB) leukemia; 239 nM in the assay with COLO 205 colon; 1690 nM with OVCAR-5 ovarian; 769 nM in the assay on HCC-2998 colon; 1310 nM in the assay on SK-MEL-5 melanoma. The GI50 is 1910 nM in the assay with CAKI-1 renal, 1920 nM with NCI-H226 lung, 2010 nM in the assay on RPMI-8226 leukemia and 567 nM in the assay with HOP-92 NSCLC. Moreover, the TGI with HOP-62 NSCLC is 3310 nM; with HL-60(TB) leukemia, 2020 nM; with COLO 205 colon, 589 nM; in the assay on OVCAR-5 ovarian, 3180 nM; in the assay with HCC-2998 colon, 2090 nM; with SK-MEL-5 melanoma it was 2590 nM. Besides, the TGI amounted to 3530 nM in the assay on CAKI-1 renal, 3830 nM in the assay on NCI-H226 lung, 5220 nM with RPMI-8226 leukemia and 1080 nM in the assay with HOP-92 NSCLC.

Take `CC(C)(C)C1=NO[C@H]2[C@@H](NC(=O)c3ccccc3)CC[C@@H]12`: the TGI in the assay with HOP-62 NSCLC, in the assay with HL-60(TB) leukemia, in the assay with COLO 205 colon, with OVCAR-5 ovarian, with HCC-2998 colon and in the assay with SK-MEL-5 melanoma was over 100000 nM in each case. Further, the TGI with CAKI-1 renal, in the assay with NCI-H226 lung, in the assay on RPMI-8226 leukemia and in the assay with HOP-92 NSCLC was over 100000 nM in each case.

Turning to `COC(=O)[C@]12CC[C@@H](C)[C@H](C)[C@@H]1C1=CC[C@@H]3[C@@]4(C)C(C=O)=C[C@@](C)(COS(C)(=O)=O)C4=CC[C@@]3(C)[C@]1(C)CC2`, the GI50 in the assay on HOP-62 NSCLC is 303 nM; with HL-60(TB) leukemia, 276 nM; in the assay with COLO 205 colon, 223 nM; with OVCAR-5 ovarian, 215 nM; in the assay with HCC-2998 colon, 204 nM; in the assay with SK-MEL-5 melanoma, 175 nM. The GI50 was 232 nM with NCI-H226 lung, 263 nM in the assay on RPMI-8226 leukemia and 197 nM in the assay with HOP-92 NSCLC. The TGI in the assay on HOP-62 NSCLC worked out at 1170 nM; with HL-60(TB) leukemia, 835 nM; in the assay with COLO 205 colon it was 454 nM; in the assay with OVCAR-5 ovarian it was 570 nM; in the assay on HCC-2998 colon, 466 nM; in the assay with SK-MEL-5 melanoma, 333 nM. Besides, the values for the TGI in the assay on NCI-H226 lung, with RPMI-8226 leukemia and with HOP-92 NSCLC were 635 nM, 1100 nM and 550 nM, respectively.

Take `CCCC(O)[C@@]1(CC)CC(C)C(O)(C2(C)C[C@H](C)[C@@H](C(CC)C(=O)C(C)[C@@H](O)[C@H](C)C3OC(O)(C(CC)C(=O)O)[C@@H](C)C(O)C3CC)O2)O1` (some centres not stated): the TGI stood at 2300 nM in the assay on HOP-62 NSCLC; 233 nM in the assay with HL-60(TB) leukemia; 830 nM in the assay with COLO 205 colon; 5350 nM with OVCAR-5 ovarian; 1490 nM in the assay with HCC-2998 colon; 1180 nM in the assay with SK-MEL-5 melanoma. Also, the TGI amounted to 5050 nM with CAKI-1 renal, 2990 nM in the assay with NCI-H226 lung and 1750 nM in the assay with HOP-92 NSCLC.

Take `CN(C)CCNC(=O)Nc1ccc(N(C)c2ccnc(Nc3ccc(CS(C)(=O)=O)cc3)n2)cc1`: the GI50 in the assay on HOP-62 NSCLC, with HL-60(TB) leukemia, in the assay with COLO 205 colon, in the assay on OVCAR-5 ovarian, with HCC-2998 colon and in the assay on SK-MEL-5 melanoma was over 25000 nM each time. Moreover, the GI50 is over 25000 nM with CAKI-1 renal, over 23700 nM with NCI-H226 lung, over 25000 nM with RPMI-8226 leukemia and 6990 nM in the assay with HOP-92 NSCLC. In addition, the TGI in the assay with HOP-62 NSCLC, in the assay with HL-60(TB) leukemia, in the assay with COLO 205 colon, in the assay on OVCAR-5 ovarian, in the assay with HCC-2998 colon and with SK-MEL-5 melanoma was over 25000 nM in each case. In addition, the TGI with CAKI-1 renal, in the assay with NCI-H226 lung, in the assay on RPMI-8226 leukemia and in the assay on HOP-92 NSCLC was over 25000 nM each time.

(Values after PubChem BioAssay (NCI).)
